Structures are written as SMILES. Where two headings read alike, the source gives them in different places.

Holding throughout (experiment): biochemical
What all share (type): biochemical

The target in experiment [1] is T1, 382 unique human kinases (Homo sapiens, UniProt P24723).
T1 construct: purchased Reaction Biology (HotSpot contract assay)
The note with it: PKCeta, 10 uM; for remaining activity at 10 µM: read-out: % Enzyme Activity (relative to DMSO controls).

Experiment [2] deals with T2, 382 unique human kinases (Homo sapiens, UniProt P07949, E762Q).
T2 construct: purchased Reaction Biology (HotSpot contract assay)
T2 sequence (P07949 29-1114 E762Q): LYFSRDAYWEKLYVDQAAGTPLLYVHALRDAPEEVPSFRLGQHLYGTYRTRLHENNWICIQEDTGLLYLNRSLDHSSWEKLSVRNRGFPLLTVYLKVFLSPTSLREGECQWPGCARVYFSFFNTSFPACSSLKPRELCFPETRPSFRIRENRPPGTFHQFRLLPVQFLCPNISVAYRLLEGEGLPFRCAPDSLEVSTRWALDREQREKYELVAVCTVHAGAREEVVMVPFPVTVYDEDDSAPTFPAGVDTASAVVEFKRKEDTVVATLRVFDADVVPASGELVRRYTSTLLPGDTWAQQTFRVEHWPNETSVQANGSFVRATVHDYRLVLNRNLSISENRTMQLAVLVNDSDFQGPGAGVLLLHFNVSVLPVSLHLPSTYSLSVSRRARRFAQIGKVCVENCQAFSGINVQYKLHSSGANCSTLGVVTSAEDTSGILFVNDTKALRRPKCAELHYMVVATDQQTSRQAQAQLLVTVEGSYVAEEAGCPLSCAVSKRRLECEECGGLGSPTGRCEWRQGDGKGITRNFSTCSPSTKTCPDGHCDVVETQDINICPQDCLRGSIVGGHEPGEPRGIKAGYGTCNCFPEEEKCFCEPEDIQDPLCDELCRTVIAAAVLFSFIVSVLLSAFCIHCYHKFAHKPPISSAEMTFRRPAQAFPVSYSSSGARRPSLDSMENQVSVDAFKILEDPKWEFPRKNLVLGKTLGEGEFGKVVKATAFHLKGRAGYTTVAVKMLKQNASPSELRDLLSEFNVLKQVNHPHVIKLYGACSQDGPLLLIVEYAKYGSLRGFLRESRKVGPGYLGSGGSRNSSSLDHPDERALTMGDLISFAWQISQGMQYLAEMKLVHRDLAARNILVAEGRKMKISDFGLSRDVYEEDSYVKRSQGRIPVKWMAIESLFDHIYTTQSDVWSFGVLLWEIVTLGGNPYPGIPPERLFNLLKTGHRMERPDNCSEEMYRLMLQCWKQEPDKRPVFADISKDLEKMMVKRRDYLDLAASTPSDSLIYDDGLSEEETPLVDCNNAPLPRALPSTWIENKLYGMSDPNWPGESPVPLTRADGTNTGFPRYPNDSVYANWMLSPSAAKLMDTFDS
The note with it: compound 10 uM; for remaining activity at 10 µM: read-out: % Enzyme Activity (relative to DMSO controls).

The target in experiment [3] is T3, 382 unique human kinases (Homo sapiens, UniProt P49674).
T3 construct: purchased Reaction Biology (HotSpot contract assay)
The note with it: CK1epsilon, 10 uM; for remaining activity at 10 µM: read-out: % Enzyme Activity (relative to DMSO controls).

Experiment [4] addresses T4, 382 unique human kinases (Homo sapiens, UniProt Q15831).
T4 construct: purchased Reaction Biology (HotSpot contract assay)
T4 sequence (Q15831 1-433): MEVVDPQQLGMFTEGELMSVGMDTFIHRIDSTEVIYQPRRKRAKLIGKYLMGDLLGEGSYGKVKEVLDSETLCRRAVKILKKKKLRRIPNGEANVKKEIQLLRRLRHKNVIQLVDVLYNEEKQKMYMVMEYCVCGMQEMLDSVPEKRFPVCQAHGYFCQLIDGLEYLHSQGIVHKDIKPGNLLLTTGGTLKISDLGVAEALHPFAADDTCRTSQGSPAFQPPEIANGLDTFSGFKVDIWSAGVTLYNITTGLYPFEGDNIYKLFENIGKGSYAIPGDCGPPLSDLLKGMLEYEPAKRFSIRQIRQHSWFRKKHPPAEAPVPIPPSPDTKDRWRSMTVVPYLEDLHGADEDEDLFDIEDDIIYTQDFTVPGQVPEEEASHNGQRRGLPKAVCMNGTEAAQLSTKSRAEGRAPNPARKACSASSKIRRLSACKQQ
The note with it: LKB1, compound at 10 uM, duplicate values; for remaining activity at 10 µM: read-out: % Enzyme Activity (relative to DMSO controls).

Experiment [5] has as its target T5, 382 unique human kinases (Homo sapiens, UniProt P22694).
T5 construct: purchased Reaction Biology (HotSpot contract assay)
The note with it: kinase PKAcb, compound 10 uM; for remaining activity at 10 µM: read-out: % Enzyme Activity (relative to DMSO controls).

Experiment [6] deals with T6, 382 unique human kinases (Homo sapiens, UniProt Q15746).
T6 construct: purchased Reaction Biology (HotSpot contract assay)
The note with it: MLCK/MYLK, [ATP] 30 µM, compound 10 uM; for remaining activity at 10 µM: read-out: % Enzyme Activity (relative to DMSO controls).

In experiment [7] the target is T7, 382 unique human kinases (Homo sapiens, UniProt P54764).
T7 construct: purchased Reaction Biology (HotSpot contract assay)
T7 sequence (P54764 20-986): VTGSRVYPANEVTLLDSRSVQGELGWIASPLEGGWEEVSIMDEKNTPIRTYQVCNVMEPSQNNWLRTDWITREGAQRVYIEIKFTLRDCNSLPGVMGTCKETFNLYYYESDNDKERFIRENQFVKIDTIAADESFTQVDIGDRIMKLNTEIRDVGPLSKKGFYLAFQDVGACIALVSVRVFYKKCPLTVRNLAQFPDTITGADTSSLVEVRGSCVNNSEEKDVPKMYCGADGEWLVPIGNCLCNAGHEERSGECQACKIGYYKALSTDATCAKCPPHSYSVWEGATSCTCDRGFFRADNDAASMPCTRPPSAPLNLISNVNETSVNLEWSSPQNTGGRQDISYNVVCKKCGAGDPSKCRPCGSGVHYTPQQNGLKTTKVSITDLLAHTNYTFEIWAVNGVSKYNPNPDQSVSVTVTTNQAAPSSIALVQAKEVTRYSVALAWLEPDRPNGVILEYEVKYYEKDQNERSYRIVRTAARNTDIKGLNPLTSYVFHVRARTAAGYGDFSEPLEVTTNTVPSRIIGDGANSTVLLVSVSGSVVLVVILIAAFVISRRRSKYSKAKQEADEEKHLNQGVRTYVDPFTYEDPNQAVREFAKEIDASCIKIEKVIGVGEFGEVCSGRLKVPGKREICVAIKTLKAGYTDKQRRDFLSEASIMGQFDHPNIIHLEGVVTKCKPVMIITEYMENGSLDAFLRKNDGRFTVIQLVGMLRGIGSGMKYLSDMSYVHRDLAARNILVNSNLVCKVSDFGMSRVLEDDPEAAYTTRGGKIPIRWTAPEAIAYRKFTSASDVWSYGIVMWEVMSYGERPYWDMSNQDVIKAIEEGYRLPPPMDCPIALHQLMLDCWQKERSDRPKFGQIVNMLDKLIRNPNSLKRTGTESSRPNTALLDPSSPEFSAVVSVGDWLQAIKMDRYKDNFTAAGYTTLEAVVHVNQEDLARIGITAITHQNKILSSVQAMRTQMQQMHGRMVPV
The note with it: EPHA4, [ATP] 30 µM, compound 10 uM; for remaining activity at 10 µM: read-out: % Enzyme Activity (relative to DMSO controls).

The target of experiment [8] is T8, 382 unique human kinases (Homo sapiens, UniProt Q5TCX8).
T8 construct: purchased Reaction Biology (HotSpot contract assay)
T8 sequence (Q5TCX8 whole entry): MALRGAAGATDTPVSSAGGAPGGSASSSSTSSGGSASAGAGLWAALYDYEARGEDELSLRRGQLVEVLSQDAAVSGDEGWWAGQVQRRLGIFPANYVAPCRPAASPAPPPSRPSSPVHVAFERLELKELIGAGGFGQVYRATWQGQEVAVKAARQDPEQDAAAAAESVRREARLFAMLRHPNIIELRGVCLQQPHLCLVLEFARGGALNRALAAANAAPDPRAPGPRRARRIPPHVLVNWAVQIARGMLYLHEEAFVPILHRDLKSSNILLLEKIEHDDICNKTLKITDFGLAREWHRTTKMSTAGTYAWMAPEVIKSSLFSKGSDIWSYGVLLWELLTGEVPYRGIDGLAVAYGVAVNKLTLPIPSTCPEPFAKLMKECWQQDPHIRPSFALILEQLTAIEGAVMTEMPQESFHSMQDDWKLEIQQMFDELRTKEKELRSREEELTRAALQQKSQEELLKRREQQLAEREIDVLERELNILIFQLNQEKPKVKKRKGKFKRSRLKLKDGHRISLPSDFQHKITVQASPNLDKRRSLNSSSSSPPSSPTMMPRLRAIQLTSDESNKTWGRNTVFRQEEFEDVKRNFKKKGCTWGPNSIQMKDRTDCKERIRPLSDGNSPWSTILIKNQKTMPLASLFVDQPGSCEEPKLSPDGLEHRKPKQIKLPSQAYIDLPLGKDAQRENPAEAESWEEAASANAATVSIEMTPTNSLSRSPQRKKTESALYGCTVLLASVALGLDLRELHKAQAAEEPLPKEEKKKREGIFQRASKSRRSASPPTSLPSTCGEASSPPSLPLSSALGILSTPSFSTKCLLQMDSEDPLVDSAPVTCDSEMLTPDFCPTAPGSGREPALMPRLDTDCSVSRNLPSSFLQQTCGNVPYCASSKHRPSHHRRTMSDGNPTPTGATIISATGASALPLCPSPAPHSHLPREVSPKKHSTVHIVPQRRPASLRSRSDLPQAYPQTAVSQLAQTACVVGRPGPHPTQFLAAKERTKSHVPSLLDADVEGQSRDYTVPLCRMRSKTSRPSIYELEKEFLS
The note with it: MLK4, 10 uM; for remaining activity at 10 µM: read-out: % Enzyme Activity (relative to DMSO controls).

Experiment [9] has as its target T9, 382 unique human kinases (Homo sapiens, UniProt Q9UIK4).
T9 construct: purchased Reaction Biology (HotSpot contract assay)
The note with it: DAPK2, 10 uM; for remaining activity at 10 µM: read-out: % Enzyme Activity (relative to DMSO controls).

Experiment [10] addresses T10, 382 unique human kinases (Homo sapiens, UniProt P09769).
T10 construct: purchased Reaction Biology (HotSpot contract assay)
The note with it: FGR, [ATP] 50 µM.

Experiment [11] deals with T11, 382 unique human kinases (Homo sapiens, UniProt Q32MK0).
T11 construct: purchased Reaction Biology (HotSpot contract assay)
T11 sequence (Q32MK0 1-819): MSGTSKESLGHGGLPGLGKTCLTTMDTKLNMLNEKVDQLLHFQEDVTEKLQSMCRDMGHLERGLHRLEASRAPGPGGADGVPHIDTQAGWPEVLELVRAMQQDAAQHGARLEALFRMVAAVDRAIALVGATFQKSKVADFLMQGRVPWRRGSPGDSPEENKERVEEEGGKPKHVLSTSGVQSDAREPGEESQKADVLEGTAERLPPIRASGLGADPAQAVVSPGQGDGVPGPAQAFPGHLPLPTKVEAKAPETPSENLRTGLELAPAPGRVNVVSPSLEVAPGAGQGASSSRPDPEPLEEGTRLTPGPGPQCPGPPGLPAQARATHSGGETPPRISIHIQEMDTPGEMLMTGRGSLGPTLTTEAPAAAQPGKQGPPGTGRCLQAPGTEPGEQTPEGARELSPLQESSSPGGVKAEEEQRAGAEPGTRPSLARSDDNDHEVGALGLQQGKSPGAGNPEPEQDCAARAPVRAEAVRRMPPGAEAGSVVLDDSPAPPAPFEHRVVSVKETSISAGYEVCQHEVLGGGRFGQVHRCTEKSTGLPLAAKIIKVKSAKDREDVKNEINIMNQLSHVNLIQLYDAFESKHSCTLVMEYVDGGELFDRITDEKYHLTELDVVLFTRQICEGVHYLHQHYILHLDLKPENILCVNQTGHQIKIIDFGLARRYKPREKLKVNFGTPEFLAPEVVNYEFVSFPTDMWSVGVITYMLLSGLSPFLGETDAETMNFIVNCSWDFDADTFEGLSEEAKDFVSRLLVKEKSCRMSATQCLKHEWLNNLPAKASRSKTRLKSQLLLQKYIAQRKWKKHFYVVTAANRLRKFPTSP
The note with it: MYLK3, 10 uM; for remaining activity at 10 µM: read-out: % Enzyme Activity (relative to DMSO controls).

[12] abbreviates: compound 10 uM, read-out: % Enzyme Activity (relative to DMSO controls).

T10 sequence (P09769 whole entry): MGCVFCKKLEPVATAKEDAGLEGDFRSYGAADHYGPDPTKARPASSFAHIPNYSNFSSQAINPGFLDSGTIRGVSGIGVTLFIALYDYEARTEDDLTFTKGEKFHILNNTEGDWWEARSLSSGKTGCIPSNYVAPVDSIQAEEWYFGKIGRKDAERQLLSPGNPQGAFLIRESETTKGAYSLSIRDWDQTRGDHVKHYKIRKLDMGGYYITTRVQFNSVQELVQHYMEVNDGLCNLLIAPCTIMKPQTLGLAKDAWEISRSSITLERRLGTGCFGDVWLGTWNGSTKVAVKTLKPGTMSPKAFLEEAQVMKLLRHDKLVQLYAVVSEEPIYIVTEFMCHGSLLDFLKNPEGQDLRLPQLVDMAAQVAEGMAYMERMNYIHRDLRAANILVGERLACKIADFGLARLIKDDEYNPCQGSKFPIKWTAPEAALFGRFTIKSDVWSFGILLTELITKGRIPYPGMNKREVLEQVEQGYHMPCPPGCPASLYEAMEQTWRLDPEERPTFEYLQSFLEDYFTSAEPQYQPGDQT
T9 sequence (Q9UIK4 whole entry): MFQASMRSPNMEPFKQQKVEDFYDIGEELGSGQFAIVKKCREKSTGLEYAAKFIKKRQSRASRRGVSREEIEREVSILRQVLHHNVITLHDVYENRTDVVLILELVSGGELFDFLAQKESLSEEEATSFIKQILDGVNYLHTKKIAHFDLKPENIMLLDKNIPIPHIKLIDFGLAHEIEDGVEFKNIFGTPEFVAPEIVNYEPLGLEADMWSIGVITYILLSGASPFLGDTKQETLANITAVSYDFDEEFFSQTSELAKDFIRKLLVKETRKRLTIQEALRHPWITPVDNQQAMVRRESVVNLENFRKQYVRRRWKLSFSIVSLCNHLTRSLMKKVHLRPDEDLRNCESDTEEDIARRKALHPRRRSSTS
T1 sequence (P24723 whole entry): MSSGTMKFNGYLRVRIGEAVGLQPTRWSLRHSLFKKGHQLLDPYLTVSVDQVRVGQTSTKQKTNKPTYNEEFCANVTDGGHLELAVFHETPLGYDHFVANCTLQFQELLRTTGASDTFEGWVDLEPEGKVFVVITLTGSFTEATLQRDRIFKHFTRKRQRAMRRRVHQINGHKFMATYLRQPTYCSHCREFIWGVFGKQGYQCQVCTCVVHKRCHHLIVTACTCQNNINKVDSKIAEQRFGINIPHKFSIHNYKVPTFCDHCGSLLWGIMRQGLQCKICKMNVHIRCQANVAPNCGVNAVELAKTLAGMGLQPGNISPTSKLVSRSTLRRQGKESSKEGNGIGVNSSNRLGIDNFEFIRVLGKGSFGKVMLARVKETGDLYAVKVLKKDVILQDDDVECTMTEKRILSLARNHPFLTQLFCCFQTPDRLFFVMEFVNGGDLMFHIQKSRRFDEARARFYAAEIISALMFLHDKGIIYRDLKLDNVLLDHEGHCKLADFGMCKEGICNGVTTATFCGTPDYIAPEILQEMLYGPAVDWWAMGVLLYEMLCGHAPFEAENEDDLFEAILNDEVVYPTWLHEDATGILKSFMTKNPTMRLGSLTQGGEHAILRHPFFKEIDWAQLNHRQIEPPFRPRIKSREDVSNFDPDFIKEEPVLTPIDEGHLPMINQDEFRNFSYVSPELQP

Consider `CC(C)c1cc(-c2n[nH]c(=O)n2-c2ccc3c(ccn3C)c2)c(O)cc1O` [Ganetespib (STA9090)], for which the remaining activity at 10 µM worked out at 75.8% on 382 unique human kinases [1]; 94.2% at 382 unique human kinases [2] ([…]); 93.8% at 382 unique human kinases [2] (kinase RET (E762Q)); 73.4% on 382 unique human kinases [3]; 110% at 382 unique human kinases [4]; 96.3% on 382 unique human kinases [5].

In the case of `CC(C)c1cc(-c2n[nH]c(=O)n2-c2ccc3c(ccn3C)c2)c(O)cc1O` [Ganetespib], the remaining activity at 10 µM at 382 unique human kinases [6] was found to be 38.6%; on 382 unique human kinases [7], 49%; at 382 unique human kinases [8] it was 141%; on 382 unique human kinases [9], 96.6%; at 382 unique human kinases [10] (setting [12]) it was 14.4%; on 382 unique human kinases [11], 100%. Besides, at 382 unique human kinases [10] (compound 1 uM, read-out: % Enzyme Activity (relative to DMSO controls)), the remaining activity at 1 µM came to 47.5%.

Take `CCNC(=O)c1noc(-c2cc(C(C)C)c(O)cc2O)c1-c1ccc(CN2CCOCC2)cc1` [Luminespib (AUY-922)]: the “% Enzyme Activity (relative to DMSO controls)” value on 382 unique human kinases [1] amounted to 105.31%; at 382 unique human kinases [2] (kinase RET (E762Q)), 89.64%; on 382 unique human kinases [3], 103.86%; on 382 unique human kinases [4] it was 103.13%; on 382 unique human kinases [5] it was 100.86%. Besides, the remaining activity at 10 µM on 382 unique human kinases [1] amounted to 106%; on 382 unique human kinases [2] (kinase RET (E762Q)), 96.6%; at 382 unique human kinases [3], 105%; on 382 unique human kinases [4] it was 106%; at 382 unique human kinases [5] it was 103%.

In the case of `CCNC(=O)c1noc(-c2cc(C(C)C)c(O)cc2O)c1-c1ccc(CN2CCOCC2)cc1` [Luminespib], the “% Enzyme Activity (relative to DMSO controls)” value was 95.43% on 382 unique human kinases [6]; 90.78% at 382 unique human kinases [7]; 99.12% on 382 unique human kinases [8]; 94.93% on 382 unique human kinases [9]; 33.14% on 382 unique human kinases [10] (compound 10 uM); 99.89% at 382 unique human kinases [11]. The remaining activity at 10 µM on 382 unique human kinases [6] came out at 97.5%; at 382 unique human kinases [7] it was 91.1%; on 382 unique human kinases [8] it was 101%; at 382 unique human kinases [9] it was 95.4%; on 382 unique human kinases [10] (setting [12]), 34.1%; at 382 unique human kinases [11] it was 100%.
